Laboratory results from patent US20050238634A1, “Method, compositions and kits for increasing the oral bioavailability of pharmaceutical agents” (Baker Norton Pharmaceuticals, Inc., priority 1995, published 2005).
Where two headings read alike, the source gives them in different places.

Legend:
[1] = reports in the literature; cited from earlier work
[2] = male, Sprague-Dawley, rat, in vivo
[3] = 3H-etoposide IV, oral, oral with cyclosporin in rats, whole blood radioactivity (Example 6, NP960102); type: in vivo
[4] = etoposide capsules; cited from earlier work
[5] = Repeated oral co-administration of paclitaxel with CsA, plasma levels; type: in vivo, rats; conditions: repeated regimen
[6] = Sprague Dawley, rat, in vivo
[7] = not given; remark: listed apart in the source
[8] = not given; remark: listed apart in the source
[9] = Sprague Dawley, rat, in vivo; remark: listed apart in the source
metastatic breast cancer = conditions: continuous 96-hour infusion every three weeks; taxane-failure patients; cited from earlier work
in vivo = conditions: Sprague Dawley, rat
[10] = oral; cited from earlier work
[11] = oral 3H-paclitaxel 9 mg/kg, cyclosporin dose 2 × 5 mg/kg oral
[12] = radioactivity of oral 3H-paclitaxel 9 mg/kg, cyclosporin dose 2 × 5 mg/kg oral
[13] = Grp C, etoposide 1/PO with CsA 5/PO before and with
[14] = Sprague Dawley, rat, in vivo, po
[15] = Sprague Dawley, rat, in vivo, po, 9 mg/kg
[16] = total radioactivity, Paclitaxel IV 9 mg/kg

In the case of `C/C=C/C[C@@H](C)[C@@H](OC(C)=O)[C@H]1C(=O)N[C@@H](CC)C(=O)N(C)CC(=O)N(C)[C@@H](CC(C)C)C(=O)N[C@@H](C(C)C)C(=O)N(C)[C@@H](CC(C)C)C(=O)N[C@@H](C)C(=O)N[C@H](C)C(=O)N(C)[C@@H](CC(C)C)C(=O)N(C)[C@@H](CC(C)C)C(=O)N(C)[C@@H](C(C)C)C(=O)N1C` [Cyclosporin Acetyl A, acetyl cyclosporin A], the “% Absorption” value [11] is reported as 25.4% and the AUC0-24 [12] is reported as 8.39 μg eq. hr/ml.

With `C/C=C/C[C@@H](C)[C@@H](O)[C@H]1C(=O)N[C@@H]([C@@H](C)O)C(=O)N(C)CC(=O)N(C)[C@@H](CC(C)C)C(=O)N[C@@H](C(C)C)C(=O)N(C)[C@@H](CC(C)C)C(=O)N[C@@H](C)C(=O)N[C@H](C)C(=O)N(C)[C@@H](CC(C)C)C(=O)N(C)[C@@H](CC(C)C)C(=O)N(C)[C@@H](C(C)C)C(=O)N1C` [Cyclosporin C, cyclosporin C] the “% Absorption” value [11] was 34.5% and the AUC0-24 [12] was 11.39 μg eq. hr/ml.

In the case of `C/C=C/C[C@@H](C)[C@@H](O)[C@H]1C(=O)N[C@@H](C(C)C)C(=O)N(C)CC(=O)N(C)[C@@H](CC(C)C)C(=O)N[C@@H](C(C)C)C(=O)N(C)[C@@H](CC(C)C)C(=O)N[C@@H](C)C(=O)N[C@H](C)C(=O)N(C)[C@@H](CC(C)C)C(=O)N(C)[C@@H](CC(C)C)C(=O)N(C)[C@@H](C(C)C)C(=O)N1C` [Cyclosporin D, cyclosporin D], the immunosuppressive activity [1] is listed as “least immunosuppressive activity”.

`CCCC[C@@H](C)[C@@H](O)[C@H]1C(=O)N[C@@H](CC)C(=O)N(C)CC(=O)N(C)[C@@H](CC(C)C)C(=O)N[C@@H](C(C)C)C(=O)N(C)[C@@H](CC(C)C)C(=O)N[C@@H](C)C(=O)N[C@H](C)C(=O)N(C)[C@@H](CC(C)C)C(=O)N(C)[C@@H](CC(C)C)C(=O)N(C)[C@@H](C(C)C)C(=O)N1C` [Cyclosporin Dihydro A, dihydro cyclosporin A] showed an AUC0-24 [12] of 8.5 μg eq. hr/ml.

With `C/C=C/C[C@@H](C)C[C@H]1C(=O)N[C@@H](CC)C(=O)N(C)CC(=O)N(C)[C@@H](CC(C)C)C(=O)N[C@@H](C(C)C)C(=O)N(C)[C@@H](CC(C)C)C(=O)N[C@@H](C)C(=O)N[C@H](C)C(=O)N(C)[C@@H](CC(C)C)C(=O)N(C)[C@@H](CC(C)C)C(=O)N(C)[C@@H](C(C)C)C(=O)N1C` [Cyclosporin F, cyclosporin F] the AUC0-24 (oral 3H-paclitaxel 9 mg/kg, cyclosporin dose 2 × 10 mg/kg oral) was 11.99 μg eq. hr/ml, the AUC0-24 [12] was 8.99 μg eq. hr/ml and the “activity in promoting oral absorption of paclitaxel” value (whole blood radioactivity profiles, 5 mg/kg oral before and with paclitaxel 9 mg/kg) was “enhances the oral bioavailability of paclitaxel”. For the same molecule, the immunosuppressive activity [1] was “does not display immunosuppressive activity”.

In the case of `C/C=C/C[C@@H](C)[C@@H](O)[C@H]1C(=O)N[C@@H](CCC)C(=O)N(C)CC(=O)N(C)[C@@H](CC(C)C)C(=O)N[C@@H](C(C)C)C(=O)N(C)[C@@H](CC(C)C)C(=O)N[C@@H](C)C(=O)N[C@H](C)C(=O)N(C)[C@@H](CC(C)C)C(=O)N(C)[C@@H](CC(C)C)C(=O)N(C)[C@@H](C(C)C)C(=O)N1C` [Cyclosporin G, cyclosporin G], the “% Absorption” value [11] is reported as 40.0% and the AUC0-24 [12] is reported as 13.22 μg eq. hr/ml.

For `C/C=C/C[C@@H](C)[C@@H](O)[C@H]1C(=O)N[C@@H](CC)C(=O)N(C)CC(=O)N(C)[C@@H](CC(C)C)C(=O)N[C@@H](C(C)C)C(=O)N[C@@H](CC(C)C)C(=O)N[C@@H](C)C(=O)N[C@H](C)C(=O)N(C)[C@@H](CC(C)C)C(=O)N(C)[C@@H](CC(C)C)C(=O)N(C)[C@@H](C(C)C)C(=O)N1C` [Cyclosporin U, cyclosporin U], the “% Absorption” value [11] was 15.2% and the AUC0-24 [12] was 5.02 μg eq. hr/ml.

`OCCN(CCO)c1nc(N2CCCCC2)c2nc(N(CCO)CCO)nc(N3CCCCC3)c2n1` [Dipyridamole, dipyridamole] showed a t½ [2] of 26.6 h.

In the case of `COc1cc([C@@H]2c3cc4c(cc3[C@@H](O[C@@H]3O[C@@H]5CO[C@@H](C)O[C@H]5[C@H](O)[C@H]3O)[C@H]3COC(=O)[C@H]23)OCO4)cc(OC)c1O` [Etoposide, etoposide], the Cmax ([3]; Grp A, etoposide only 1/IV) is reported as 2.16 ug*eq/mL, the t½ ([3]; Grp A, etoposide only 1/IV) is reported as 26.5 h and the AUC0-24 ([3]; Grp A, etoposide only 1/IV, total radioactivity) is reported as 1080 ng·h/mL. For the same molecule, the AUC0-24 ([3]; Grp B, etoposide only 1/PO) was 610 ng·h/mL, the Cmax ([3]; Grp B, etoposide only 1/PO) was 0.03 ug*eq/mL and the F % ([3]; Grp B, etoposide only 1/PO) was 56.5%. It also gave a t½ ([3]; Grp B, etoposide only 1/PO) of 19.1 h, an AUC0-24 [3, 13] of 1040 ng·h/mL and a Cmax [3, 13] of 0.12 ug*eq/mL. The F % [3, 13] was 96.3%, the t½ [3, 13] was 18.1 h and the F % ([3]; Grp C, etoposide 1/PO with CsA 5/PO before and with, listed as etoposide) was “about 96%”. For the same molecule, the “mean value of oral bioavailability” value [4] was “approximately 50%”.

Work on `CC(=O)N1CCN(c2ccc(OCC3COC(Cn4ccnc4)(c4ccc(Cl)cc4Cl)O3)cc2)CC1` (centres unmarked) [Ketoconazole, ketoconazole] yielded a t½ [2] of 9.23 h.

Molecule `CC(=O)O[C@]1(C(C)=O)CC[C@H]2[C@@H]3C=C(C)C4=CC(=O)CC[C@]4(C)[C@H]3CC[C@@]21C` [Magace, megestrol acetate] has a t½ [2] of 23.1 h.

In the case of `CC(=O)O[C@H]1C(=O)[C@@]2(C)[C@H]([C@H](OC(=O)c3ccccc3)[C@]3(O)C[C@H](OC(=O)[C@H](O)[C@@H](NC(=O)c4ccccc4)c4ccccc4)C(C)=C1C3(C)C)[C@]1(OC(C)=O)CO[C@@H]1C[C@@H]2O` [Paclitaxel, paclitaxel], the “steady state plasma levels of paclitaxel achieved” value [5] is reported as “by the third day”, the “Absolute F” value [6] is reported as 0.9% and the AUC0-24 ([7]; NP951001, paclitaxel only 9/IV) is reported as 32.04 µg·h/mL. For the same molecule, the AUC0-24 ([7]; NP951001, paclitaxel only 9/PO) was 3.24 µg·h/mL, the “% Dose in urine (4-24 hr)” value ([7]; Sprague Dawley, rat, in vivo, iv) was 2.2% and the “% Dose in urine (4-24 hr)” value [7, 14] was 1.9%. The AUC0-24 [7, 14] was 3.2 μg eq × hr/ml, the Tmax [7, 14] was 25 h and the AUC0-24 ([7]; total radioactivity in blood, IV (A)) was 32.8 μg eq × hr/ml. For the same molecule, the “F (%) Based on AUC0-00” value [8, 14] was 16.4%, the “F (%) based on AUC0-24 hr” value [8, 14] was 5.9% and the AUC0-00 [8, 15] was 4.5 μg equiv. hr/mL. For the same molecule, the AUC0-24 hr [8, 15] was 1.4 μg equiv. hr/mL, the AUC0-00 [8, 16] was 27.4 μg equiv. hr/mL and the AUC0-24 hr [8, 16] was 23.8 μg equiv. hr/mL. For the same molecule, the V ([9]; iv) was 4.236 L/kg, the “AUC0-[…]” value ([9]; po) was 349 ng·h/mL and the “F %” value ([9]; po) was 1.7%. The V ([9]; po) was 5.029 L/kg, the response rate (metastatic breast cancer) was 27% and the bioavailability (in vivo; in vivo, po) was under 1%. The AUC(0-t) (in vivo; serum, oral, 9 mg/kg) was 80 ng·h/mL and the “absorbed when administered orally” value [10] was “less than 1%”.

In the case of `CC(=O)[C@H]1CC[C@H]2[C@@H]3CCC4=CC(=O)CC[C@]4(C)[C@H]3CC[C@]12C` [Progesterone, progesterone], the t½ [2] is reported as 20.0 h.

With “dihydro cyclosporin C [Cyclosporin Dihydro C]” the “% Absorption” value [11] was 45.1% and the AUC0-24 [12] was 13.09 μg eq. hr/ml.
